Target: TrkA (Homo sapiens (Human), UniProt P04629)
Test: TrkA Omnia Assay
Assay type: biochemical
Details: averaged IC50; 20 nM enzyme, 500 μM ATP, 10 μM peptide substrate
Summary of the method: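 Recombinant TrkA (20 nM) preincubated 10 min at ambient temperature with compound, then Omnia Tyr Peptide #4 (10 μM) and ATP (500 μM) added in 25 mM MOPS pH 7.5, 5 mM MgCl2, 0.005% Triton X-100. Fluorescence (ex 360/em 485 nm) followed continuously for 70 min; IC50 from initial rates by 4- or 5-parameter logistic fit.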

Chain of TrkA (P04629 33-796): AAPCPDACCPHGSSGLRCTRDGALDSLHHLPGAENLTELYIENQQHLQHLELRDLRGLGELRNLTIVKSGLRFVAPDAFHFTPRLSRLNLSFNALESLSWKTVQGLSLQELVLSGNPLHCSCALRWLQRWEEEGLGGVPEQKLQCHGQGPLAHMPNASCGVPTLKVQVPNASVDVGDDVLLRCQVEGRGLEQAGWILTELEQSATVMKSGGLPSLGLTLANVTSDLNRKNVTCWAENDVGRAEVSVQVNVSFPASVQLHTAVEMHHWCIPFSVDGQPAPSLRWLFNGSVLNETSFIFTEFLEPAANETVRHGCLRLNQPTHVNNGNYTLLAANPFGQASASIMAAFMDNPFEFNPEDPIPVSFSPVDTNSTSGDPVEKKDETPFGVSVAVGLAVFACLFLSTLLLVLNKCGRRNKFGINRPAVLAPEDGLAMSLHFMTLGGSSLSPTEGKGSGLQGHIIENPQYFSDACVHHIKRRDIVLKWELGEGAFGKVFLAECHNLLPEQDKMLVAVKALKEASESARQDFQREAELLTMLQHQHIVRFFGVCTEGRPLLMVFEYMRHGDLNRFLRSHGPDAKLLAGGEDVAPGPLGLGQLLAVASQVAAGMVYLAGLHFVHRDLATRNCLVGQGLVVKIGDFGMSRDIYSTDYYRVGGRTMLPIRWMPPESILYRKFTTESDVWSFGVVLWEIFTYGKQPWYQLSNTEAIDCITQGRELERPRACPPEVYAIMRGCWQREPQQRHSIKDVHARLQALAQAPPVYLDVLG

| Compound | IC50 [nM] |
| --- | --- |
| CCOc1nn(-c2ccccc2)c(NC(=O)N[C@@H]2CN(CCOC)C[C@H]2c2cc(F)cc(F)c2)c1CO [Example 464, 1-((3S,4R)-4-(3,5-difluorophenyl)-1-(2-methoxyethyl)pyrrolidin-3-yl)-3-(3-ethoxy-4-(hydroxymethyl)-1-phenyl-1H-pyrazol-5-yl)urea] | < 100 |
| COCCN1C[C@@H](NC(=O)Nc2c(C)c(-c3cnn(C)c3)nn2-c2ccccc2)[C@H](c2ccc(F)c(Cl)c2)C1 [Example 465, 1-((3S,4R)-4-(3-chloro-4-fluorophenyl)-1-(2-methoxyethyl)pyrrolidin-3-yl)-3-(1′,4-dimethyl-1-phenyl-1H, 1′H-3,4′-bipyrazol-5-yl)urea] | < 100 |
| COCCN1C[C@@H](NC(=O)Nc2c(C)c(-c3cnn(C)c3)nn2-c2ccccc2)[C@H](c2ccc(Cl)c(F)c2)C1 [Example 466, 1-((3S,4R)-4-(4-chloro-3-fluorophenyl)-1-(2-methoxyethyl)pyrrolidin-3-yl)-3-(1′,4-dimethyl-1-phenyl-1H, 1′H-3,4′-bipyrazol-5-yl)urea] | < 100 |
| COCCN1C[C@@H](NC(=O)Nc2c(C)c(-c3cnn(C)c3)nn2-c2ccccc2)[C@H](c2cc(F)cc(Cl)c2)C1 [Example 467, 1-((3S,4R)-4-(3-chloro-5-fluorophenyl)-1-(2-methoxyethyl)pyrrolidin-3-yl)-3-(1′,4-dimethyl-1-phenyl-1H, 1′H-3,4′-bipyrazol-5-yl)urea] | < 100 |
| CCOc1nn(-c2ccccc2)c(NC(=O)N[C@@H]2CN(CC(=O)OC)C[C@H]2c2ccc(F)c(F)c2)c1C [Example 468, methyl 2-((3R,4S)-3-(3,4-difluorophenyl)-4-(3-(3-ethoxy-4-methyl-1-phenyl-1H-pyrazol-5-yl)ureido)pyrrolidin-1-yl)acetate] | < 100 |
| CCOc1nn(-c2ccccc2)c(NC(=O)N[C@@H]2CN(CC(O)C(F)(F)F)C[C@H]2c2ccc(F)c(F)c2)c1C (stereo partly drawn) [Example 469, 1-((3S,4R)-4-(3,4-difluorophenyl)-1-(3,3,3-trifluoro-2-hydroxypropyl)pyrrolidin-3-yl)-3-(3-ethoxy-4-methyl-1-phenyl-1H-pyrazol-5-yl)urea] | 1000 to 10000 |
| CCOc1nn(-c2ccccc2)c(NC(=O)N[C@@H]2CN(CC(C)O)C[C@H]2c2ccc(F)c(F)c2)c1C (stereo partly drawn) [Example 470, 1-((3S,4R)-4-(3,4-difluorophenyvl)-1-(2-hydroxypropyl)pyrrolidin-3-yl)-3-(3-ethoxy-4-methyl-1-phenyl-1H-pyrazol-5-yl)urea] | 100 to 1000 |
| CCOc1nn(-c2ccccc2)c(NC(=O)N[C@@H]2CN(CCC#N)C[C@H]2c2ccc(F)c(F)c2)c1C [Example 471, 1-((3S,4R)-1-(2-cyanoethyl)-4-(3,4-difluorophenyl)pyrrolidin-3-yl)-3-(3-ethoxy-4-methyl-1-phenyl-1H-pyrazol-5-yl)urea] | 100 to 1000 |
| CCOc1nn(-c2ccccc2)c(NC(=O)N[C@@H]2CN(CC(=O)NC)C[C@H]2c2ccc(F)c(F)c2)c1C [Example 472, 2-((3R,4S)-3-(3,4-difluorophenyl)-4-(3-(3-ethoxy-4-methyl-1-phenyl-1H-pyrazol-5-yl)ureido)pyrrolidin-1-yl)-N-methylacetamide] | 100 to 1000 |
| COCCN1C[C@@H](NC(=O)Nc2c(C)c(C)nn2C2CCCCC2)[C@H](c2ccc(F)c(F)c2)C1 [Example 473, 1-(1-cyclohexyl-3,4-dimethyl-1H-pyrazol-5-yl)-3-((3 S,4R)-4-(3,4-difluorophenyl)-1-(2-methoxyethyl)pyrrolidin-3-yl)urea] | < 100 |
| COCCN1C[C@@H](NC(=O)Nc2c(C)c(OCC(CO)CO)nn2-c2ccccc2)[C@H](c2ccc(F)c(F)c2)C1 [Example 474, 1-((3S,4R)-4-(3,4-difluorophenyl)-1-(2-methoxyethyl)pyrrolidin-3-yl)-3-(3-(3-hydroxy-2-(hydroxymethyl)propoxy)-4-methyl-1-phenyl-1H-pyrazol-5-yl)urea] | < 100 |
| COCCN1C[C@@H](NC(=O)Nc2c(C)c(OCC(F)(F)F)nn2-c2ccccc2)[C@H](c2ccc(F)c(F)c2)C1 [Example 475, 1-((3S,4R)-4-(3,4-difluorophenyl)-1-(2-methoxyethyl)pyrrolidin-3-yl)-3-(4-methyl-1-phenyl-3-(2,2,2-trifluoroethoxy)-1H-pyrazol-5-yl)urea] | < 100 |
| COCCN1C[C@@H](NC(=O)Nc2c(C)c(OCC(F)(F)F)nn2-c2ccccc2)[C@H](c2ccc(F)cc2)C1 [Example 476, 1-((3S,4R)-4-(4-fluorophenyl)-1-(2-methoxyethyl)pyrrolidin-3-yl)-3-(4-methyl-1-phenyl-3-(2,2,2-trifluoroethoxy)-1H-pyrazol-5-yl)urea] | < 100 |
| COCCN1C[C@@H](NC(=O)Nc2c(C)c(OCC(F)(F)F)nn2-c2ccccc2)[C@H](c2cc(F)cc(F)c2)C1 [Example 477, 1-((3S,4R)-4-(3,5-difluorophenyvl)-1-(2-methoxyethyl)pyrrolidin-3-yl)-3-(4-methyl-1-phenyl-3-(2,2,2-trifluoroethoxy)-1H-pyrazol-5-yl)urea] | < 100 |
| COCCN1C[C@@H](NC(=O)Nc2c(C)c(OCC(F)F)nn2-c2ccccc2)[C@H](c2ccc(F)c(F)c2)C1 [Example 478, 1-(3-(2,2-difluoroethoxy)-4-methyl-1-phenyl-1H-pyrazol-5-yl)-3-((3 S,4R)-4-(3,4-difluorophenyl)-1-(2-methoxyethyl)pyrrolidin-3-yl)urea] | < 100 |
| COCCN1C[C@@H](NC(=O)Nc2c(Cl)c(OCC(F)(F)F)nn2-c2ccccc2)[C@H](c2ccc(F)c(F)c2)C1 [Example 479, 1-(4-chloro-1-phenyl-3-(2,2,2-trifluoroethoxy)-1H-pyrazol-5-yl)-3-((3 S,4R)-4-(3,4-difluorophenyl)-1-(2-methoxyethyl)pyrrolidin-3-yl)urea] | < 100 |
| COCCN1C[C@@H](NC(=O)Nc2c(Cl)c(-c3ccccn3)nn2-c2ccccc2)[C@H](c2ccc(F)c(F)c2)C1 [Example 480, 1-(4-chloro-1-phenyl-3-(pyridin-2-yl)-1H-pyrazol-5-yl)-3-((3 S,4R)-4-(3,4-difluorophenyl)-1-(2-methoxyethyl)pyrrolidin-3-yl)urea] | < 100 |
| COCCN1C[C@@H](NC(=O)Nc2c(Cl)c(-c3ccncc3)nn2-c2ccccc2)[C@H](c2ccc(F)c(F)c2)C1 [Example 481, 1-(4-chloro-1-phenyl-3-(pyridin-4-yl)-1H-pyrazol-5-yl)-3-((3 S,4R)-4-(3,4-difluorophenyl)-1-(2-methoxyethyl)pyrrolidin-3-yl)urea] | < 100 |
| COCCN1C[C@@H](NC(=O)Nc2c(Cl)c(-c3cccnc3)nn2-c2ccccc2)[C@H](c2ccc(F)c(F)c2)C1 [Example 482, 1-(4-chloro-1-phenyl-3-(pyridin-3-yl)-1H-pyrazol-5-yl)-3-((3S,4R)-4-(3,4-difluorophenyl)-1-(2-methoxyethyl)pyrrolidin-3-yl)urea] | < 100 |
| COCCN1C[C@@H](NC(=O)Nc2c(Br)c(-c3cccnc3)nn2-c2ccccc2)[C@H](c2ccc(F)c(F)c2)C1 [Example 483, 1-(4-bromo-1-phenyl-3-(pyridin-3-yl)-1H-pyrazol-5-yl)-3-((3 S,4R)-4-(3,4-difluorophenyl)-1-(2-methoxyethyl)pyrrolidin-3-yl)urea] | < 100 |
